Laboratory results: the NIST ThermoML archive (doi:10.1021/acs.jced.5b00592)
± gives the expanded uncertainty stated by the source.

Details: 101.33 kPa, Liquid, Vibrating tube method

Row | Structure (SMILES) | mass density (293.15 K) [kg/m3] | mass density (303.15 K) [kg/m3] | mass density (313.15 K) [kg/m3] | mass density (323.15 K) [kg/m3] | mass density (333.15 K) [kg/m3] | mass density (343.15 K) [kg/m3] | mass density (353.15 K) [kg/m3] | mass density (288.15 K) [kg/m3] | mass density (298.15 K) [kg/m3] | mass density (308.15 K) [kg/m3] | mass density (318.15 K) [kg/m3] | mass density (328.15 K) [kg/m3] | mass density (338.15 K) [kg/m3] | mass density (348.15 K) [kg/m3]
1 | CCCC(=O)[O-].C[NH2+]CCO [N-methyl-2-hydroxyethylammonium butanoate] | 1038.03 ± 0.93 | 1031.04 ± 0.91 | 1024.03 ± 0.9 | 1016.9 ± 0.88 | 1009.68 ± 0.87 | 1002.38 ± 0.86 | 994.97 ± 0.84 | – | – | – | – | – | – | –
2 | CCCCCCCCn1cc[n+](C)c1.O=S(=O)([N-]S(=O)(=O)C(F)(F)F)C(F)(F)F | 1324.99 ± 0.54 | 1316.08 ± 0.53 | 1307.23 ± 0.52 | 1298.45 ± 0.52 | 1289.73 ± 0.51 | 1281.05 ± 0.5 | 1272.41 ± 0.5 | 1329.44 ± 0.54 | 1320.54 ± 0.53 | 1311.64 ± 0.53 | 1302.82 ± 0.52 | 1294.08 ± 0.51 | 1285.38 ± 0.51 | 1276.72 ± 0.5
3 | CCCCCCCCCCCCn1cc[n+](C)c1.O=S(=O)([N-]S(=O)(=O)C(F)(F)F)C(F)(F)F | 1234.45 ± 1.4 | 1225.93 ± 1.3 | 1217.48 ± 1.3 | 1209.09 ± 1.3 | 1200.8 ± 1.3 | 1192.54 ± 1.3 | 1184.33 ± 1.2 | 1238.73 ± 1.4 | 1230.2 ± 1.4 | 1221.7 ± 1.3 | 1213.28 ± 1.3 | 1204.95 ± 1.3 | 1196.67 ± 1.3 | 1188.43 ± 1.3
4 | CCCCCCCCn1cc[n+](C)c1.O=S(=O)([O-])C(F)(F)F [1-octyl-3-methylimidazolium trifluoromethanesulfonate] | 1197.12 ± 0.44 | 1189.64 ± 0.43 | 1182.17 ± 0.43 | 1174.72 ± 0.42 | 1167.34 ± 0.42 | 1159.99 ± 0.41 | 1152.68 ± 0.41 | 1200.83 ± 0.44 | 1193.39 ± 0.43 | 1185.9 ± 0.43 | 1178.44 ± 0.42 | 1171.02 ± 0.42 | 1163.66 ± 0.41 | 1156.33 ± 0.41
5 | CCCC[n+]1ccn(C)c1.O=S(=O)([N-]S(=O)(=O)C(F)(F)F)C(F)(F)F | 1439.13 ± 4 | 1429.51 ± 4 | 1419.98 ± 4 | 1410.5 ± 4 | 1401.09 ± 4 | 1391.74 ± 4 | 1382.43 ± 4 | 1443.95 ± 4 | 1434.32 ± 4 | 1424.73 ± 4 | 1415.23 ± 4 | 1405.78 ± 4 | 1396.41 ± 4 | 1387.07 ± 4
6 | CCC(=O)[O-].C[NH2+]CCO [2-hydroxy-N-methylethanaminium propionate] | 1068.13 ± 0.99 | 1061.16 ± 0.97 | 1054.19 ± 0.96 | 1047.12 ± 0.94 | 1039.96 ± 0.93 | 1032.71 ± 0.92 | 1025.34 ± 0.9 | – | – | – | – | – | – | –
7 | CC(=O)[O-].C[NH2+]CCO [N-methyl-2-hydroxyethylammonium acetate] | 1099.6 ± 1.1 | 1093 ± 1 | 1086.4 ± 1 | 1079.7 ± 1 | 1072.9 ± 1 | 1066.1 ± 1 | 1059.1 ± 1 | – | – | – | – | – | – | –
8 | CCCC[n+]1ccccc1.O=S(=O)([N-]S(=O)(=O)C(F)(F)F)C(F)(F)F [1-butylpyridinium bis[(trifluoromethyl)sulfonyl]imide] | 1452.97 ± 1.9 | 1443.6 ± 1.9 | 1434.25 ± 1.9 | 1425 ± 1.9 | 1415.82 ± 1.8 | 1406.74 ± 1.8 | 1397.61 ± 1.8 | 1457.74 ± 1.9 | 1448.23 ± 1.9 | 1438.91 ± 1.9 | 1429.62 ± 1.9 | 1420.41 ± 1.8 | 1411.23 ± 1.8 | 1402.15 ± 1.8
